Results from patent publication US20250326834A1, “COMBINATION THERAPY OF CLAUDIN 18.2 ANTAGONIST AND PD-1/PD-L1 AXIS INHIBITOR” (SUZHOU TRANSCENTA THERAPEUTICS CO., LTD., priority 2021, published 2025).

Columns and labels:
[1] = test system: CT26-CLDN18.2 syngeneic tumor; experiment: CT26-CLDN18.2 syngeneic tumor model, 18B10 and Atezolizumab; format: in vivo, BALB/c mice
Text: CT26 is synergic mouse tumor model. CT26-CLDN18.2 was purchased from Kyinno (Cat #, KC-1195), which was stalely transfected with human CLDN18.2 expression. The tumor cells were routinely sub-cultured twice weekly by trypsin-EDTA treatment (Hyclone). The cells growing in an exponential growth phase were harvested and counted for tumor inoculation. Female SPF grade BALB/c mice were inoculated with 2×10^6 CT26-CLDN18.2 cells. Animal were selected and randomized to 4 groups (n=8) when tumors grow to 80-120 mm^3. Animals were then treated with either 10 mg/kg Isotype control, 10 mg/kg anti-CLDN18.2 antibody 18B10, 3 mg/kg anti-PD-L1 antibody Atezolizumab, or 10 mg/kg anti-CLDN18.2 antibody 18B10 and 3 mg/kg anti-PD-L1 antibody Atezolizumab twice a week for 3 weeks by i.p. injection. Tumor size was measured twice a week in two dimensions using a caliper (INSIZE) and the volume was expressed in mm^3 using the formula: V=0.5 a×b^2 where a and b are the long and short diameters of the tumor, respectively. Results were analyzed using Prism GraphPad and expressed as mean±S.E.M. Comparisons between two groups were made by T-test, and the difference is considered significant if p is *<0.05 and **<0.01.

[2] = test system: MC38-CLDN18.2 syngeneic tumor; experiment: MC38-CLDN18.2 syngeneic tumor model, 18B10 and Atezolizumab; format: in vivo, C57BL/6 mice
Text: MC38-CLDN18.2 was purchase from Kyinno (Cat #, KC-1449), which was stable transfected with human CLDN18.2 expression. The tumor cells were routinely sub-culture twice weekly by trypsin-EDTA treatment (Hyclone). The cells growing in an exponential growth phase were harvested and counted for tumor inoculation. Female SPF grade C57BL/6 mice were inoculated with 2×10^6 MC38-CLDN18.2 cells. Animal were selected and randomized to 4 groups (n=6) when tumors grow to 70-100 mm^3. Animals were then treated with 13 mg/kg Isotype control, 10 mg/kg anti-CLDN18.2 antibody 18B10, 3 mg/kg anti-PD-L1 antibody Atezolizumab, 10 mg/kg anti-CLDN18.2 antibody 18B10 and 3 mg/kg anti-PD-L1 antibody Atezolizumab twice a week for 4 weeks by i.p. injection. Tumor size was measured twice a week in two dimensions using a caliper (INSIZE) and the volume was expressed in mm^3 using the formula: V=0.5 a×b^2 where a and b are the long and short diameters of the tumor, respectively. Results were analyzed using Prism GraphPad and expressed as mean±S.E.M. Comparisons between two groups were made by T-test, and the difference is considered significant if p is *<0.05 and **<0.01.

[3] = test system: CLDN18.2-expressing gastric tumor cell lines NUGC-4, KATOIII and SNU-620; experiment: Upregulation of PD-L1 expression on tumor cells by supernatant of target cell/PBMC co-culture, flow cytometry; format: cell-based; conditions: supernatant of target cell + human PBMC (E/T 40:1) with 30 μg/ml 18B10 (S3), or of target cell with 5 ng/ml IFN-γ (S4), 72 h
Method: In this assay, three different CLDN18.2-expressing gastric tumor cell lines, NUGC-4 (JCRB, Cat #JCRBB0834), KATOIII (ATCC, Cat #HTB-103) and SNU-620 (Cobioer, Cat #CBP60508), were used as target cell and added to the cell culture plate. No antibody, 30 μg/ml of anti-CLDN18.2 antibody 18B10, 30 μg/ml of isotype control hIgG1 or 5 ng/ml IFN-γ were added into the corresponding wells with the target cell. After the plate was co-cultured at 37° C. for 30 mins, human PBMC as the effector cell was added with a E/T ratio of 40:1. The plate was incubated at 37° C. for 72 hours. At the end of incubation, 100 μl of cell culture supernatant of each well was transferred to another cell culture plate with the same target cell planted. After the second plate was incubated at 37° C. for 72 hours, the target cells were collected and analyzed for PD-L1 expression by flowcytometry using mouse anti-human PD-L1 antibody (BD Pharmingen, Cat #557924). S1 stood for the supernatant of the target cell alone; S2 stood for the supernatant of the target cell and human PBMC with isotype control hIgG1; S3 stood for the supernatant of the target cell and human PBMC with anti-CLDN18.2 antibody 18B10; S4 stood for the supernatant of the target cell with IFN-γ.

[4] = 18B10 10 mg/kg, Atezolizumab 3 mg/kg

Row | Substance | antitumor activity compared with isotype control [1, 4] | TGI ([1]; Day 33, 18B10 10 mg/kg, Atezolizumab 3 mg/kg, i.p. twice a week for 3 weeks) [%] | Tumor size ([1]; Day 33, 18B10 10 mg/kg, Atezolizumab 3 mg/kg, i.p. twice a week for 3 weeks, mean ± S.E.M.) [mm^3] | CR ([1]; Day 33, animals per group) | antitumor activity compared with isotype control [2, 4] | TGI ([2]; Day 51, 18B10 10 mg/kg, Atezolizumab 3 mg/kg, i.p. twice a week for 4 weeks) [%] | Tumor size ([2]; Day 51, 18B10 10 mg/kg, Atezolizumab 3 mg/kg, i.p. twice a week for 4 weeks, mean ± S.E.M.) [mm^3] | CR ([2]; Day 51, animals per group) | PD-L1 expression of target cells compared to S1 group (target cell alone) [3]
1 | Atezolizumab [reference compound] | better antitumor activity compared with treatment with isotype control | 71.16 | 1350.18 ± 366.69 | 2/8 | better antitumor activity compared with treatment with isotype control | 71.14 | 1154.61 ± 526.35 | 0/6 | –
2 | IFN-γ: IFN-γ, 5 ng/ml added to target cells as comparison (S4) [reference compound] | – | – | – | – | – | – | – | – | increased PD-L1 expression
